# From patent US11723890B2, “Methods of treatment using an mTORC1 modulator” (Navitor Pharmaceuticals, Inc., priority 2019, dated 2023)
# Test system: subjects with TRD
# Assay: Example 1 Part B: preliminary efficacy on depression rating scales in subjects with TRD
# Assay type: in vivo, human
# Protocol: Primary Efficacy Endpoint: The primary efficacy endpoint was the difference between the compound A group and the placebo group in change from baseline in the Montgomery Asberg Depression Rating Scale (MADRS) total score at Day 2 (24 hours post dose).
# Secondary Efficacy Endpoints: Secondary preliminary efficacy endpoints were the difference between the compound A group and the placebo group in: • change from baseline in the MADRS total score at each time point • change from baseline in the Hamilton Depression Rating Scale-6 Item (HAM-D6) total score at each time point • change from baseline in the IDS-SR30 total score and domain scores at each time point • change from baseline in the Clinical Global Impression-Severity (CGI-S) score at each time point
# Preliminary Efficacy Evaluations: Other psychiatric evaluations were performed to assess preliminary efficacy in Part B only. These evaluations included the Montgomery-Asberg Depression Rating Scale (MADRS), the Hamilton Depression Rating Scale-6 Item (HAM-D6), the Clinical Global Impression-Severity (CGI-S), and the Inventory of Depressive Symptomatology (30-item, self-rated version) (IDS-SRN). Montgomery-Asberg Depression Rating Scale (MADRS).
# The MADRS is a clinician-administered scale used to assess the range of symptoms that are most frequently observed in patients with major depression. The scale includes 10 items, each scored on a scale of 0 to 6. The MADRS was administered centrally by a third-party independent rater blinded to protocol, visit, and treatment.
# Hamilton Depression Rating Scale-6 Item (HAM-D6): The HAM-D6 is a clinician-administered scale used to assess key domains of depressive symptomatology. The HAM-D6 was derived from the original 17-item version of the scale (HAM-D17). Five of the six items are scored on a scale of 0 to 4, and one item is scored on a scale of 0 to 2.
# Clinical Global Impression-Severity (CGI-S): The CGI-S is a 7-point clinician-administered scale used to assess the severity of the patient's illness at the time of assessment relative to the clinician's past experience with patients who have the same diagnosis.
# Inventory of Depressive Symptomatology (30-Item, Self-Rated Version) (IDS-SR30): The IDS-SR30 is a self-rated scale used to assess the severity of depressive symptomatology. The scale includes 30 items, each scored on a scale of 0 to 3.
# The MADRS total score was centrally administered. The HAM-D6 was site-administered. The CGI-S was site physician administered. The IDS-SR was patient self-administered. MADRS-6 and MADRS-8 scores were then extrapolated post hoc from the MADRS total scores.
# MADRS-10 items include apparent sadness, reported sadness, inner tension, reduced sleep, reduced appetite, concentration difficulties, lassitude, inability to feel, pessimistic thoughts, and suicidal thoughts. MADRS-6 items include apparent sadness, reported sadness, inner tension, lassitude, inability to feel, and pessimistic thoughts. MADRS-8 items include apparent sadness, reported sadness, inner tension, concentration difficulties, lassitude, inability to feel, pessimistic thoughts, and suicidal thoughts. HAM-D6 items include depressed mood, low self-esteem/guilt, work and interests, psychomotor retardation, psychic anxiety, and somatic symptoms.
# When determining clinically significant antidepressant effect, it is recommended to use standardized effect size statistics. The correct use of depression rating scales in clinical trials of antidepressants is to indicate the effect size of the specific items of depression and to accept an effect size of 0.40 or higher as being the clinically significant effect. An effect size of ≥0.2 indicates early improvement. An effect size of ≥0.4 indicates a clinical response.
# [1] = single 2400 mg vs placebo, 72 h, prespecified, N = 31
# [2] = single 2400 mg, 24 hours post dose
structure (smiles),measurement,setting,value
"CC(C)(C[C@H](N)C(=O)O)C(F)F [Compound A, (S)-2-amino-5,5-difluoro-4,4-dimethylpentanoic acid]","Effect size, CGI-S Change from baseline",[1],0.2
same,"Effect size, HAM-D6",[1],0.4
same,"Effect size, IDS-SR 30 Total Score",[1],0.3
same,"Effect size, MADRS Total Score",[1],-0.1
same,MADRS concentration scores,[2],marked improvement
same,"MADRS item Apparent Sadness, % CFB",[2],−12.3%
same,"MADRS item Apparent Sadness, CFB",[2],−0.56
same,"MADRS item Apparent Sadness, score Day 1",[2],4.00
same,"MADRS item Concentration, % CFB",[2],−23.1%
same,"MADRS item Concentration, CFB",[2],−0.94
same,"MADRS item Concentration, score Day 1",[2],3.13
same,"MADRS item Inability to Feel, % CFB",[2],−12.9%
same,"MADRS item Inability to Feel, CFB",[2],−0.56
same,"MADRS item Inability to Feel, score Day 1",[2],3.81
same,"MADRS item Inner Tension, % CFB",[2],−40.5%
same,"MADRS item Inner Tension, CFB",[2],−1.06
same,"MADRS item Inner Tension, score Day 1",[2],1.56
same,"MADRS item Lassitude, % CFB",[2],−1.8%
same,"MADRS item Lassitude, CFB",[2],−0.06
same,"MADRS item Lassitude, score Day 1",[2],3.44
same,"MADRS item Pessimistic Thoughts, % CFB",[2],−23.3%
same,"MADRS item Pessimistic Thoughts, CFB",[2],−0.63
same,"MADRS item Pessimistic Thoughts, score Day 1",[2],2.06
same,"MADRS item Reduced Appetite, % CFB",[2],−14.3%
same,"MADRS item Reduced Appetite, CFB",[2],−0.44
same,"MADRS item Reduced Appetite, score Day 1",[2],2.63
same,"MADRS item Reduced Sleep, % CFB",[2],−7.4%
same,"MADRS item Reduced Sleep, CFB",[2],−0.31
same,"MADRS item Reduced Sleep, score Day 1",[2],3.94
same,"MADRS item Reported Sadness, % CFB",[2],−19.2%
same,"MADRS item Reported Sadness, CFB",[2],−0.94
same,"MADRS item Reported Sadness, score Day 1",[2],3.94
same,"MADRS item Suicidal Thoughts, % CFB",[2],−9.1%
same,"MADRS item Suicidal Thoughts, CFB",[2],−0.06
same,"MADRS item Suicidal Thoughts, score Day 1",[2],0.63
same,"MADRS-10 TOTAL SCORE, CFB",[2],−5.5
same,Change in HAM-D6 Total Score,"single 2400 mg, at 2 h",−2.0
same,"Change in HAM-D6 Total Score, Difference Compound A vs Placebo","single 2400 mg, at 2 h",−1.3
same,Change in HAM-D6 Total Score,"single 2400 mg, at 4 h",−2.6
same,"Change in HAM-D6 Total Score, Difference Compound A vs Placebo","single 2400 mg, at 4 h",−1.8
same,Change in HAM-D6 Total Score,"single 2400 mg, at 8 h",−2.9
same,"Change in HAM-D6 Total Score, Difference Compound A vs Placebo","single 2400 mg, at 8 h",−1.7
same,Change in HAM-D6 Total Score,"single 2400 mg, at 12 h",−3.9
same,"Change in HAM-D6 Total Score, Difference Compound A vs Placebo","single 2400 mg, at 12 h",−2.7
same,Change in HAM-D6 Total Score,"single 2400 mg, at 24 h",−3.5
same,"Change in HAM-D6 Total Score, Difference Compound A vs Placebo","single 2400 mg, at 24 h",−1.5
same,Change in HAM-D6 Total Score,"single 2400 mg, at 36 h",−4.3
same,"Change in HAM-D6 Total Score, Difference Compound A vs Placebo","single 2400 mg, at 36 h",−1.8
same,Change in HAM-D6 Total Score,"single 2400 mg, at 48 h",−3.7
same,"Change in HAM-D6 Total Score, Difference Compound A vs Placebo","single 2400 mg, at 48 h",−1.3
same,Change in HAM-D6 Total Score,"single 2400 mg, at 72 h",−4.1
same,"Change in HAM-D6 Total Score, Difference Compound A vs Placebo","single 2400 mg, at 72 h",−1.3
same,HAM-D6 scores,"single dose 2400 mg, FIG. 2",rapid and sustained efficacy
